# US10287266B2, “Compounds and compositions for inhibiting the activity of SHP2” (NOVARTIS AG, priority 2015, dated 2019)
# Molecular target: T1, SHP2 (Homo sapiens, UniProt Q06124)
# T1 sequence (Q06124 1-593): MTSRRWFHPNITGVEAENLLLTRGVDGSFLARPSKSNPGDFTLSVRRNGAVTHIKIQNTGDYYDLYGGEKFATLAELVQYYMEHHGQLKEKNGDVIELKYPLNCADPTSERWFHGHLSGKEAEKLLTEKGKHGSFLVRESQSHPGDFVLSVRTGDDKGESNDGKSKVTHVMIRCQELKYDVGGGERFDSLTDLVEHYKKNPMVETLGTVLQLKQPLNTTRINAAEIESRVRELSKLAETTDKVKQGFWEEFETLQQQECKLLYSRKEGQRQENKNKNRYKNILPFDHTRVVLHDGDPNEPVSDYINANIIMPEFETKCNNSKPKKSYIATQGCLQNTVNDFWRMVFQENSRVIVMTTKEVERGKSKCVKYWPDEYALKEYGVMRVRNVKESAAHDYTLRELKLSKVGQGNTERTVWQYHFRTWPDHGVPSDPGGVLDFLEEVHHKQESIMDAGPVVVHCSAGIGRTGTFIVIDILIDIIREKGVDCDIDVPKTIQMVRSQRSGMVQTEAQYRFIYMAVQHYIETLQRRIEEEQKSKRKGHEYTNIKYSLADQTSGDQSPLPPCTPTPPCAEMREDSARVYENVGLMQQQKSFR
# Test: SHP2 Allosteric Inhibition Assay
# Assay type: biochemical
# Conditions: 0.5 nM SHP2 activated with 0.5 μM peptide IRS1_pY1172(dPEG8)pY1222; surrogate substrate DiFMUP, prompt fluorescence, 25° C.
# From the text: SHP2 Allosteric Inhibition Assay
# SHP2 is allosterically activated through binding of bis-tyrosyl-phorphorylated peptides to its Src Homology 2 (SH2) domains. The latter activation step leads to the release of the auto-inhibitory interface of SHP2, which in turn renders the SHP2 protein tyrosine phosphatase (PTP) active and available for substrate recognition and reaction catalysis. The catalytic activity of SHP2 was monitored using the surrogate substrate DiFMUP in a prompt fluorescence assay format.
# After 30-60 minutes incubation at 25° C., the surrogate substrate DiFMUP (Invitrogen, cat# D6567) was added to the reaction and incubated at 25° C. for 30 minutes. […] The inhibitor dose response curves were analyzed using normalized IC50 regression curve fitting with control based normalization.
row,Compound,AC50 [nM]
1,"CC1(CN)CCN(c2cnc(Sc3ccnc(N)c3Cl)cn2)CC1O (single isomer, unassigned) [Example 39]",28.2
2,"CC1(CN)CCN(c2cnc(Sc3ccnc(N)c3Cl)cn2)CC1O (single isomer, unassigned) [Example 40]",108
3,"CC1(CN)CCN(c2cnc(Sc3ccnc(N)c3Cl)cn2)CC1O (single isomer, unassigned) [Example 51]",72.3
4,"CC1(CN)CCN(c2cnc(Sc3ccnc(N)c3Cl)cn2)CC1O (single isomer, unassigned) [Example 52]",791
5,"C[C@@H]1OCC2(CCN(c3cnc(Sc4ccnc(N)c4Cl)cn3)CC2)[C@@H]1N [Example 3, (3S,4S)-8-(5-((2-amino-3-chloropyridin-4-yl)thio)pyrazin-2-yl)-3-methyl-2-oxa-8-azaspiro[4.5]decan-4-amine]",7.9
6,"N#Cc1c(Sc2cnc(N3CCC4(CCC[C@H]4N)CC3)cn2)ccnc1Cl [Example 5, (R)-4-((5-(1-amino-8-azaspiro[4.5]decan-8-yl)pyrazin-2-yl)thio)-2-chloronicotinonitrile]",67
7,"CC1(N)CCN(c2cnc(Sc3cccnc3C(F)(F)F)cn2)CC1 [Example 6, 4-methyl-1-(5-((2-(trifluoromethyl)pyridin-3-yl)thio)pyrazin-2-yl)piperidin-4-amine]",127
8,"N[C@@H]1CCCC12CCN(c1cnc(Sc3cnnc(O)c3Cl)cn1)CC2 [Example 7, (R)-5-((5-(1-amino-8-azaspiro[4.5]decan-8-yl)pyrazin-2-yl)thio)-4-chloropyridazin-3-ol]",213
9,"Nc1nccc(Sc2cnc(N3CCC4(CCCCN4)CC3)cn2)c1Cl [Example 8, 4-((5-(1,9-diazaspiro[5.5]undecan-9-yl)pyrazin-2-yl)thio)-3-chloropyridin-2-amine]",434
10,"CC1(CN)CCN(c2cnc(Sc3ccc(N)cc3Cl)cn2)CC1 [Example 9, 4-((5-(4-(aminomethyl)-4-methylpiperidin-1-yl)pyrazin-2-yl)thio)-3-chloroaniline]",30.6
11,Nc1nccc(Sc2cnc(N3CCC4(CC3)C[C@H](F)C[C@H]4N)cn2)c1Cl [Example 10],3.9
12,CC1CCC2(CCN(c3cnc(Sc4ccnc(N)c4Cl)cn3)CC2)[C@@H]1N (some centres unmarked) [Example 13],5.9
13,Nc1cc(Sc2cnc(N3CCC4(CC3)C[C@H](O)C[C@H]4N)cn2)c(Cl)c(Cl)n1 [Example 15],6
14,CO[C@H]1C[C@@H](N)C2(CCN(c3cnc(Sc4ccnc(N)c4Cl)cn3)CC2)C1 [Example 17],6.2
15,CCC1(CN)CCN(c2cnc(Sc3ccnc(N)c3Cl)cn2)CC1 [Example 18],8.2
16,CC1(CN)CCN(c2cnc(Sc3cccc(N)c3Cl)cn2)CC1 [Example 22],10
17,CC1(CN)CCN(c2cnc(Sc3ccnc(N)c3Cl)cn2)CC1 [Example 25],10.7

# Now from value to compound:
row,AC50 [nM],Compound
1,17.4,"NC1=NC2(CCN(c3cnc(Sc4ccnc(Cl)c4Cl)cn3)CC2)CO1 [Example 4, 8-(5-((2,3-dichloropyridin-4-yl)thio)pyrazin-2-yl)-3-oxa-1,8-diazaspiro[4.5]dec-1-en-2-amine]"
2,4.1,Nc1nccc(Sc2cnc(N3CCC4(CC3)C[C@H](O)C[C@H]4N)cn2)c1Cl [Example 11]
3,5.7,C[C@H]1OCC2(CCN(c3cnc(Sc4ccnc(N)c4Cl)cn3)CC2)[C@@H]1N [Example 12]
4,6,C[C@H]1C[C@@H](N)C2(CCN(c3cnc(Sc4ccnc(N)c4Cl)cn3)CC2)C1 [Example 14]
5,6.1,Nc1nccc(Sc2cnc(N3CCC4(CC3)COC[C@H]4N)cn2)c1Cl [Example 16]
6,8.5,N[C@@H]1COCC12CCN(c1cnc(Sc3ccnc(Cl)c3Cl)cn1)CC2 [Example 19]
7,8.7,N[C@@H]1C[C@H](O)CC12CCN(c1cnc(Sc3ccnc(Cl)c3Cl)cn1)CC2 [Example 20]
8,10.4,N[C@@H]1COCC12CCN(c1cnc(Sc3ccncc3Cl)cn1)CC2 [Example 23]
9,10.4,Nc1cc(Sc2cnc(N3CCC4(CC3)COC[C@H]4N)cn2)c(Cl)c(Cl)n1 [Example 24]
